The values below come from article PMC4792470, “A Novel Manno-Oligosaccharide Binding Protein Identified in Alkaliphilic Bacillus sp. N16-5 Is Involved in Mannan Utilization” (PLoS ONE, 2016).

The test concerns the target T1, ManH (Bacillus sp. N16-5, UniProt A0A140EH86).
T1 construct: without N-terminal signal peptide; pET-28a NcoI/BamHI, native stop codon in primer; E. coli BL21(DE3); anion exchange; primers give N-terminus (M)DENTGGN and C-terminus SLEGIE; full-length starts MNKKLWL by primer
T1 sequence (A0A140EH86 17-435): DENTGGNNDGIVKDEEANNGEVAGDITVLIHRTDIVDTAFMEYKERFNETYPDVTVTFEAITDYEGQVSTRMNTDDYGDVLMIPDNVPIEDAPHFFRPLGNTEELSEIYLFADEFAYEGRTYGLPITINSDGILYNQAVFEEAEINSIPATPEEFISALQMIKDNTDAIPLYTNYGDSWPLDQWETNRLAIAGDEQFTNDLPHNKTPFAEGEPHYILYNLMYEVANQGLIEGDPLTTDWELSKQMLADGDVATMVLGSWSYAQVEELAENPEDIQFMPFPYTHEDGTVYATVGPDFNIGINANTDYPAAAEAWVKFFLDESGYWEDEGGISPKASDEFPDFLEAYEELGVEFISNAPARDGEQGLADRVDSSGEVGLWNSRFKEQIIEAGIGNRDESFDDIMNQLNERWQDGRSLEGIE
Put plainly: isothermal titration calorimetry. Type of test: binding. As to conditions: 20 mM Tris-HCl pH 8.0, 200 mM NaCl, 30 °C; independent-site model. The source says:
isothermal titration calorimetry on ManH
Background: In ITC the heat of successive injections is recorded.

As for `OC[C@H]1O[C@@H](O[C@H]2[C@H](O)[C@H](O)[C@H](O[C@H]3[C@H](O)[C@H](O)[C@H](O[C@H]4[C@H](O)[C@H](O)[C@H](O[C@H]5[C@H](O)[C@H](O)C(O)O[C@@H]5CO)O[C@@H]4CO)O[C@@H]3CO)O[C@@H]2CO)[C@@H](O)[C@@H](O)[C@@H]1O` (stereo partly shown) [mannopentose], the “Kd (1/Ka, μM)” value stood at 0.8 µM.
The result for `OC[C@H]1O[C@@H](O[C@H]2[C@H](O)[C@H](O)[C@H](O[C@H]3[C@H](O)[C@H](O)[C@H](O[C@H]4[C@H](O)[C@H](O)C(O)O[C@@H]4CO)O[C@@H]3CO)O[C@@H]2CO)[C@@H](O)[C@@H](O)[C@@H]1O` (stereo partly shown) [mannotetraose] reads 2.2 µM; that for `OC[C@H]1O[C@@H](O[C@H]2[C@H](O)[C@H](O)[C@H](O[C@H]3[C@H](O)[C@H](O)C(O)O[C@@H]3CO)O[C@@H]2CO)[C@@H](O)[C@@H](O)[C@@H]1O` (stereo partly shown) [mannotriose], 3.8 µM.
With galactosyl-mannotriose, the “Kd (1/Ka, μM)” value is 19.4 µM.
